Here are results for 29 compounds from patent US20250026759A1 (Merck Sharp & Dohme LLC, priority 2023, published 2025).

The EC50 is the concentration at which the effect is half-maximal.

The assay concerns PBMCs infected with VSV-G pseudotyped HIV virus (VSV-G/pNLG1-P2A-ΔEnv). The assay can be described thus: cells. The assay is classed as cell-based, human. The following applies: Homo sapiens, PBMC, read-out: TACK EC50.
For `Cc1cc[nH]c1C(=O)NCc1cc2c(cc1F)[C@@](C#CC1CC1)(C(F)(F)F)NC(=O)N2` [Example 86, (S)-N-((4-(cyclopropylethynyl)-6-fluoro-2-oxo-4-(trifluoromethyl)-1,2,3,4-tetrahydroquinazolin-7-yl)methyl)-3-methyl-1H-pyrrole-2-carboxamide], the EC50 came to 15.7 nM. For `N#Cc1c[nH]c(C(=O)NCc2cc3c(cc2F)[C@@](C#CC2CC2)(C(F)(F)F)NC(=O)N3)c1` [Example 88, (S)-4-cyano-N-((4-(cyclopropylethynyl)-6-fluoro-2-oxo-4-(trifluoromethyl)-1,2,3,4-tetrahydroquinazolin-7-yl)methyl)-1H-pyrrole-2-carboxamide] the value was 25.4 nM.

In the case of `O=C1Nc2cc(CNC(=O)c3nccs3)c(F)cc2[C@@](C#CC2CC2)(C(F)(F)F)N1` [Example 89, (S)-N-((4-(cyclopropylethynyl)-6-fluoro-2-oxo-4-(trifluoromethyl)-1,2,3,4-tetrahydroquinazolin-7-yl)methyl)thiazole-2-carboxamide], the EC50 turned out to be 95 nM.

Consider `CC(F)(F)[C@@]1(C#CC2CC2)NC(=O)Nc2cc(Cn3cc4ccccc4n3)c(F)cc21` [Example 90, (S)-7-((2H-indazol-2-yl)methyl)-4-(cyclopropylethynyl)-4-(1,1-difluoroethyl)-6-fluoro-3,4-dihydroquinazolin-2(1H)-one], for which the EC50 was 9.4 nM. For `CC(F)(F)[C@@]1(C#CC2CC2)NC(=O)Nc2cc(Cn3ncc4ccccc43)c(F)cc21` [Example 91, (S)-7-((1H-indazol-1-yl)methyl)-4-(cyclopropylethynyl)-4-(1,1-difluoroethyl)-6-fluoro-3,4-dihydroquinazolin-2(1H)-one] the value was 27.3 nM; for `CC(F)(F)[C@@]1(C#CC2CC2)NC(=O)Nc2cc(Cn3nnc4ccccc43)c(F)cc21` [Example 92, (S)-7-((1H-benzo[d][1,2,3]triazol-1-yl)methyl)-4-(cyclopropylethynyl)-4-(1,1-difluoroethyl)-6-fluoro-3,4-dihydroquinazolin-2(1H)-one], 10.6 nM. With `Cc1nn(Cc2cc3c(cc2F)[C@@](C#CC2CC2)(C(C)(F)F)NC(=O)N3)c2ccccc12` [Example 93, (S)-4-(cyclopropylethynyl)-4-(1,1-difluoroethyl)-6-fluoro-7-((3-methyl-1H-indazol-1-yl)methyl)-3,4-dihydroquinazolin-2(1H)-one], the EC50 came to 28.5 nM.

With `CC(F)(F)[C@@]1(C#CC2CC2)NC(=O)Nc2cc(Cn3cnc4ccccc43)c(F)cc21` [Example 94, (S)-7-((1H-benzo[d]imidazol-1-yl)methyl)-4-(cyclopropylethynyl)-4-(1,1-difluoroethyl)-6-fluoro-3,4-dihydroquinazolin-2(1H)-one], the EC50 worked out at 44.2 nM.

Consider `COc1nn(Cc2cc3c(cc2F)[C@@](C#CC2CC2)(C(C)(F)F)NC(=O)N3)cc1Cl` [Example 95, (S)-7-((4-chloro-3-methoxy-1H-pyrazol-1-yl)methyl)-4-(cyclopropylethynyl)-4-(1,1-difluoroethyl)-6-fluoro-3,4-dihydroquinazolin-2(1H)-one], for which the EC50 was found to be 24.1 nM.

On to `O=C1Nc2cc(CN3Cc4ccccc4C3=O)c(F)cc2[C@@](C#CC2CC2)(C(F)(F)F)N1` [Example 96, (S)-4-(cyclopropylethynyl)-6-fluoro-7-((1-oxoisoindolin-2-yl)methyl)-4-(trifluoromethyl)-3,4-dihydroquinazolin-2(1H)-one], for which the EC50 stood at 45.1 nM.

As to `COc1ccc(-c2ccn(Cc3cc4c(cc3F)[C@@](C#CC3CC3)(C(C)(F)F)NC(=O)N4)n2)cc1` [Example 97, (S)-4-(cyclopropylethynyl)-4-(1,1-difluoroethyl)-6-fluoro-7-((3-(4-methoxyphenyl)-1H-pyrazol-1-yl)methyl)-3,4-dihydroquinazolin-2(1H)-one], the concentration for a half-maximal effect (EC50) was 45.3 nM. For `O=C1Nc2cc(Cn3ccc4c3CCNC4=O)c(F)cc2[C@@](C#CC2CC2)(C(F)(F)F)N1` [Example 98, (S)-4-(cyclopropylethynyl)-6-fluoro-7-((4-oxo-4,5,6,7-tetrahydro-1H-pyrrolo[3,2-c]pyridin-1-yl)methyl)-4-(trifluoromethyl)-3,4-dihydroquinazolin-2(1H)-one] the value was 65.4 nM.

In the case of `COc1cn(Cc2cc3c(cc2F)[C@@](C#CC2CC2)(C(C)(F)F)NC(=O)N3)nc1N` [Example 99, (S)-7-((3-amino-4-methoxy-1H-pyrazol-1-yl)methyl)-4-(cyclopropylethynyl)-4-(1,1-difluoroethyl)-6-fluoro-3,4-dihydroquinazolin-2(1H)-one], the EC50 worked out at 13.1 nM.

In the case of `NC(=O)c1nccn1Cc1cc2c(cc1F)[C@@](C#CC1CC1)(C(F)(F)F)NC(=O)N2` [Example 100, (S)-1-((4-(cyclopropylethynyl)-6-fluoro-2-oxo-4-(trifluoromethyl)-1,2,3,4-tetrahydroquinazolin-7-yl)methyl)-1H-imidazole-2-carboxamide], the EC50 is 13.6 nM.

Take `Cc1ccn(Cc2cc3c(cc2F)[C@@](C#CC2CC2)(C(F)(F)F)NC(=O)N3)n1` [Example 101, (S)-4-(cyclopropylethynyl)-6-fluoro-7-((3-methyl-1H-pyrazol-1-yl)methyl)-4-(trifluoromethyl)-3,4-dihydroquinazolin-2(1H)-one]: the concentration for a half-maximal effect (EC50) came to 13.8 nM.

In the case of `CC(F)(F)[C@@]1(C#CC2CC2)NC(=O)Nc2cc(Cn3ccc(C=O)n3)c(F)cc21` [Example 102, (S)-1-((4-(cyclopropylethynyl)-4-(1,1-difluoroethyl)-6-fluoro-2-oxo-1,2,3,4-tetrahydroquinazolin-7-yl)methyl)-1H-pyrazole-3-carbaldehyde], the EC50 was 26.8 nM. To `CC(F)(F)[C@@]1(C#CC2CC2)NC(=O)Nc2cc(Cn3cnc(N)n3)c(F)cc21` [Example 106, (S)-7-((3-amino-1H-1,2,4-triazol-1-yl)methyl)-4-(cyclopropylethynyl)-4-(1,1-difluoroethyl)-6-fluoro-3,4-dihydroquinazolin-2(1H)-one] belongs 16.8 nM; to `Cc1nn(C)c(=O)n1Cc1cc2c(cc1F)[C@@](C#CC1CC1)(C(C)(F)F)NC(=O)N2` [Example 108, (S)-4-(cyclopropylethynyl)-4-(1,1-difluoroethyl)-7-((1,3-dimethyl-5-oxo-1,5-dihydro-4H-1,2,4-triazol-4-yl)methyl)-6-fluoro-3,4-dihydroquinazolin-2(1H)-one], 18.3 nM. Regarding `CC(F)(F)[C@@]1(C#CC2CC2)NC(=O)Nc2cc(Cn3nc[nH]c3=O)c(F)cc21` [Example 109, (S)-4-(cyclopropylethynyl)-4-(1,1-difluoroethyl)-6-fluoro-7-((5-oxo-4,5-dihydro-1H-1,2,4-triazol-1-yl)methyl)-3,4-dihydroquinazolin-2(1H)-one], the EC50 was determined as 20.9 nM. For `CN1CC(=O)N(Cc2cc3c(cc2F)[C@@](C#CC2CC2)(C(C)(F)F)NC(=O)N3)C1=O` [Example 110, (S)-3-((4-(cyclopropylethynyl)-4-(1,1-difluoroethyl)-6-fluoro-2-oxo-1,2,3,4-tetrahydroquinazolin-7-yl)methyl)-1-methylimidazolidine-2,4-dione] the value was 43.9 nM; for `CN(Cc1cc2c(cc1F)[C@@](C#CC1CC1)(C(C)(F)F)NC(=O)N2)c1cc[nH]n1` [Example 111, (S)-4-(cyclopropylethynyl)-4-(1,1-difluoroethyl)-6-fluoro-7-((methyl(1H-pyrazol-3-yl)amino)methyl)-3,4-dihydroquinazolin-2(1H)-one], 103 nM.

As for `COCc1ccn(Cc2cc3c(cc2F)[C@@](C#CC2CC2)(C(C)(F)F)N(C)C(=O)N3)n1` [Example 112, (S)-4-(cyclopropylethynyl)-4-(1,1-difluoroethyl)-6-fluoro-7-((3-(methoxymethyl)-1H-pyrazol-1-yl)methyl)-3-methyl-3,4-dihydroquinazolin-2(1H)-one], the EC50 amounted to 18.1 nM. To `COc1nn(Cc2cc3c(cc2F)[C@@](C#CC2CC2)(C(C)(F)F)NC(=O)N3)cc1F` [Example 115, (S)-4-(cyclopropylethynyl)-4-(1,1-difluoroethyl)-6-fluoro-7-((4-fluoro-3-methoxy-1H-pyrazol-1-yl)methyl)-3,4-dihydroquinazolin-2(1H)-one] belongs 19.8 nM; to `Cc1nnn(Cc2cc3c(cc2F)[C@@](C#CC2CC2)(C(F)(F)F)NC(=O)N3)n1` [Example 118, (S)-4-(cyclopropylethynyl)-6-fluoro-7-((5-methyl-2H-tetrazol-2-yl)methyl)-4-(trifluoromethyl)-3,4-dihydroquinazolin-2(1H)-one], 36.4 nM.

On to `O=C1Nc2cc(Cc3[nH]nc4ccccc34)c(F)cc2[C@@](C#CC2CC2)(C(F)(F)F)N1` [Example 119, (S)-7-((2H-indazol-3-yl)methyl)-4-(cyclopropylethynyl)-6-fluoro-4-(trifluoromethyl)-3,4-dihydroquinazolin-2(1H)-one], for which the EC50 is 57.8 nM. For `CC(F)(F)[C@@]1(C#CC2CC2)NC(=O)Nc2cc(Cn3ccc(S(N)(=O)=O)n3)c(F)cc21` [Example 120, (S)-1-((4-(cyclopropylethynyl)-4-(1,1-difluoroethyl)-6-fluoro-2-oxo-1,2,3,4-tetrahydroquinazolin-7-yl)methyl)-1H-pyrazole-3-sulfonamide] the value was 61.7 nM; for `CC(F)(F)[C@@]1(C#CC2CC2)NC(=O)Nc2cc(Cn3cc(C(F)F)cn3)c(F)cc21` [Example 121, (S)-4-(cyclopropylethynyl)-4-(1,1-difluoroethyl)-7-((4-(difluoromethyl)-1H-pyrazol-1-yl)methyl)-6-fluoro-3,4-dihydroquinazolin-2(1H)-one], 67.9 nM. For `Cn1cnn(Cc2cc3c(cc2F)[C@@](C#CC2CC2)(C(C)(F)F)NC(=O)N3)c1=O` [Example 122, (S)-4-(cyclopropylethynyl)-4-(1,1-difluoroethyl)-6-fluoro-7-((4-methyl-5-oxo-4,5-dihydro-1H-1,2,4-triazol-1-yl)methyl)-3,4-dihydroquinazolin-2(1H)-one] the value was 74.2 nM; for `COc1cnn(Cc2cc3c(cc2Cl)[C@@](C#CC2CC2)(C(F)(F)F)NC(=O)N3)c1` [Example 123, (S)-6-chloro-4-(cyclopropylethynyl)-7-((4-methoxy-1H-pyrazol-1-yl)methyl)-4-(trifluoromethyl)-3,4-dihydroquinazolin-2(1H)-one], 79 nM.
